Assay results published in article PMC5554727 (The Journal of steroid biochemistry and molecular biology, 2017).
pIC50: −log10 of the molar value.

Biological target: SULT1A1 (Homo sapiens, UniProt P50225)
Assay: inhibition of sulfonation of […]C-p-nitrophenol by recombinant enzyme
Assay type: biochemical

Chain of SULT1A1 (P50225 whole entry): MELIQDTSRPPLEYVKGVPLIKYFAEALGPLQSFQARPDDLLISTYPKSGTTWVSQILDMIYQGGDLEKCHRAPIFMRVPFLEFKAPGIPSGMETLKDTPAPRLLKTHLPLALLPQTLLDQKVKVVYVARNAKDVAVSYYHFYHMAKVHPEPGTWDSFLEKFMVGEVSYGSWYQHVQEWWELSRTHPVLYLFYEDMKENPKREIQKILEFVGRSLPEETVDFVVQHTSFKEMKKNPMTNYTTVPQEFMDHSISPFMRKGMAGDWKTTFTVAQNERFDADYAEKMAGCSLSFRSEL

Question: With `Cc1ccc(-c2cc(C(F)(F)F)nn2-c2ccc(S(N)(=O)=O)cc2)cc1` [celecoxib] as the molecule, how does the pIC50 read?
Answer: 5.68
